Results on 89 molecules are retold here after a melting point compilation (Tetko et al.; mined from patent text by program, amines drawn as free bases though some values may be those of a salt).

Usually melting point stands for the temperature, or range, at which the solid turns liquid.

The molecule `CCCCCNC(=O)[C@H](Cc1ccc(OCC(=O)O)c(-c2cc(O)no2)c1)NC(=O)[C@H](Cc1ccccc1)NC(=O)OC(C)(C)C` yielded a melting point of 122 to 123 °C.
Turning to `CC(C)CCCC(C)C1CCC2C3CC=C4CC(OCCCCCCN5C(=O)c6ccccc6C5=O)CCC4(C)C3CCC12C` (centres undefined), the melting point was found to be 80 °C.
As to `Cn1nc(-c2ccc(Cl)c(Cl)c2)cc1C(=O)O`, the melting point was in the range of 252 to 256 °C.
`Cc1cn(N=Cc2cccnc2)c(=O)n1CC#N`: the melting point is 195 to 198 °C.
Take `CCOC(=O)c1ccc(-c2nc(COc3ccc(COc4nn(-c5ccccc5)cc4C=O)cc3OC)c(C)o2)s1`: the melting point lay within 156 to 157 °C.
`Nc1cc(F)c2[nH]nc(NC(=O)c3ccccc3)c2c1`: the melting point worked out at 208 °C.
Molecule `COC(=O)c1cc(=O)c2cc(C(F)(F)F)ccc2[nH]1` showed a melting point of 289 to 291 °C.
With `Cc1ccc2c(c1)C(C(=S)Nc1c(C(C)C)cccc1C(C)C)c1ccccc1CO2` (centres undefined), the melting point was determined as 140 °C.
Take `O=C1C(=O)N(CCCCN2CCN(C(c3ccccc3)c3ccccc3)CC2)c2ccc(Br)cc21`: the melting point is 132 to 133 °C.
Regarding `O=c1[nH]c2ccc(F)cc2c(=O)n1CCS`, the melting point was in the range of 240 to 242 °C.
The value for `O=C(N[C@H](Cc1cccc(C(F)(F)F)c1)[C@@H](O)c1ccc(F)cc1)c1ccc(F)c2ccccc12` (racemic) was 193 to 194 °C; that for `O=C(O)c1cc(=O)c2cc(F)ccc2o1` was 261 to 262 °C.
Take `Cn1c(C(=O)O)cc(=O)c2oc3ccc(Cl)cc3c(=O)c21`: the melting point fell in the range of 241 to 242 °C.
Turning to `O=[N+]([O-])c1ccc2[nH]c(/C=C/c3ccncc3)nc2c1`, the melting point is > 280 °C.
`N#Cc1ccc(-n2c(=O)oc3ccc(-c4ccc(F)cc4F)cc3c2=O)cc1` yielded a melting point of 203 to 204 °C.
The molecule `CCn1c(=O)ccc2cnc(Nc3ccc(OC)c(F)c3)nc21` came in with a melting point of 196 to 198 °C.
As for `CCOC(=O)/C=C/c1cnn(Cc2ccccc2)c1-c1ccccc1`, the melting point lay within 62 to 63 °C.
In turn, `CCCCCCCCNC(=O)CCBr` returned a melting point of 48 to 55 °C.
In the case of `C[C@H](C(=O)O)[C@H](O)CCCCc1ccccc1` it was 75 to 77 °C; in that of `O=C(O)C(OCc1ccc(Cl)cc1)(C(F)(F)F)C(F)(F)F`, 98 to 99 °C; in that of `CC[C@H](C)[C@H](NC(=O)c1ccc(C)cc1)NC(=S)Nc1cccnc1`, 102 to 104 °C.
Molecule `O=S(=O)(CCl)c1c(Cl)nc(Cl)nc1Cl` gave a melting point of 152 to 153 °C.
For the molecule `CCN1CCN(c2ccnc3sc(C(N)=O)c(N)c23)CC1`, the melting point was in the range of 218 to 219 °C.
In turn, `COc1ccc(OC)c(CC(=O)c2ccc(C(C)C)c(OS(N)(=O)=O)c2C(C)C)c1` showed a melting point of 150 to 152 °C.
For the molecule `CC(CCc1ccccc1)N(C)C1CCC(c2ccc(OCc3ccccc3)cc2)CC1` (racemic), the melting point lay within 54.5 to 55.5 °C.
As for `COC(=O)C1CCCC(=C(N)c2ccc(Cl)cc2)C(=O)C1` (centres undefined), the melting point was 154 to 155 °C.
`O=C1NC(=O)c2ccc(Br)cc2/C1=C/N1CCN(CCN2CCOCC2)CC1` gave a melting point of 156 °C.
On to `COC(=O)CCCc1cc2cc(Cl)ccc2n1S(=O)(=O)c1cc(C)cc(C)c1`, for which the melting point fell in the range of 140 to 143 °C.
Regarding `Cc1ccc2c(c1)[C@H](Nc1nc(N)nc(C(F)F)n1)[C@@H](C)C2`, the melting point lay within 132 to 134 °C.
In the case of `CC1(C)C2CCC(C2)C1(C)F` (centres undefined), the melting point lay in the range of 93 to 94 °C.
Regarding `CCOC(=O)c1cn2c3c(c(F)c(F)cc3c1=O)OCC21CCC1`, the melting point is 255 to 256 °C.
The molecule `COc1cc2ncn(CCCCl)c(=O)c2cc1OC` displayed a melting point of 143 °C.
The molecule `Cc1cc(O)cc(C)c1C=O` came in with a melting point of 190 °C.
As for `c1ccc2c(c1)cnn2N1CCNCC1`, the melting point amounted to 153 °C.
As for `COc1nc(N)nc(Cl)c1C1=NCCN1`, the melting point was found to be 212 °C.
On to `CNC1=Nc2ccccc2C(O)(c2ccccc2)C1(C)C` (centres undefined), for which the melting point is 192 to 194 °C.
Molecule `COc1ccc(Cn2c(=O)c(=NNc3ccccc3)c(=O)n(CC34CC5CC(CC(C5)C3)C4)c3ccccc32)cc1` yielded a melting point of 170 to 188 °C.
In the case of `O=C(O)c1n[nH]c(=O)c2cc(F)ccc12`, the melting point was 222 to 224 °C.
For `COc1cc2c(Nc3ccc(Cl)cc3F)ncnc2cc1OCCOc1cccnc1`, the melting point fell in the range of 188 to 190 °C.
In the case of `COc1ccc(C(=O)O)c([N+](=O)[O-])c1OC` it was 200 to 202 °C.
Regarding `C=C1CCC2C3CCC4CC(OC(C)=O)CCC4(C)C3C(=O)CC12C` (centres undefined), the melting point lay within 140 to 141 °C.
On to `Nc1nnc(C(F)(F)Oc2ccccc2)s1`, for which the melting point was 149 to 151 °C.
For `COc1ccc(Oc2ccccc2-c2cn(C(C)(C)C)c(N)c2C#N)cc1`, the melting point fell in the range of 171 to 172 °C.
Molecule `O=C(Nc1nnn[nH]1)c1ccc(OCCn2ccnc2)cc1` yielded a melting point of 263 °C.
`CC(CBr)(CBr)C(=O)O` returned a melting point of 60 to 62 °C.
As for `CCOC=Nc1c(C#N)cnn1-c1ccc(Cl)c(Cl)c1Cl`, the melting point lay within 131 to 132 °C.
For `CCOC(=O)C=Cc1cnc(Nc2ccccc2)nc1N`, the melting point fell in the range of 190 to 192 °C.
`O=C(Nc1ccc(-c2nn(C(=O)c3ccccc3)c3c2Cc2ccccc2-3)cc1)c1ccccc1` showed a melting point of 241 °C.
Take `CCN1C(=O)C(C)(C)C(=O)Nc2cc(C#N)ccc21`: the melting point fell in the range of 215 to 218 °C.
The molecule `O=C1C(=O)c2ccccc2C2=C1SCC1(CCN(C(=O)c3cc4ccccc4s3)CC1)O2` yielded a melting point of 110 to 112 °C.
Turning to `CCCCCCCCCCCCOc1ccc(C(=O)c2ccc(Sc3ccccc3)cc2)c(O)c1`, the melting point was in the range of 59 to 60 °C.
Regarding `CCOc1ccc(Nc2c([N+](=O)[O-])cc([N+](=O)[O-])c(Cl)c2C(=O)O)cc1`, the melting point is 202 to 206 °C.
In the case of `Cc1cc(N2CCN(Cc3ccc(N)cc3)C2=O)sc1C(=O)NCc1cccnc1` it was 118 to 120 °C.
`CCCCCS(=O)(=O)NC(=O)/C(C)=C/c1ccc(OCCCOC)cc1Oc1ncc(Cl)cc1Cl` yielded a melting point of 116 to 117 °C.
Molecule `O=c1oc2ccccc2cc1CCN1CCC(Nc2nc3ccccc3n2Cc2cccs2)CC1` yielded a melting point of 165 °C.
In the case of `C#CC(C)(O)C1CCC2C3CCC4CC(F)CCC4(C)C3CCC21C` (centres undefined) it was 230 to 231 °C; in that of `O=C(Oc1ccccc1)N1CCC(Sc2ccccc2F)CC1`, 58 to 60 °C.
In the case of `CCC(CC)n1cc(Br)nc(N2CCc3cc(Cl)cc(Cl)c32)c1=O` it was 158 to 160 °C.
In turn, `Cc1ccc2nc(-c3cccc(Cl)c3)oc(=O)c2c1` displayed a melting point of 160 to 162 °C.
On to `CCOC(=O)c1cccc(C(=O)CC)c1OCCN(CC)CC`, for which the melting point was 103 to 105 °C.
In turn, `O=C(NCc1ccc(Cl)cc1)c1noc2ccc(C#CCO)cc2c1=O` displayed a melting point of 117 to 120 °C.
Turning to `CCN(CC)CCN1CCN(CCCN2CCCCC2)C1=C(C#N)C#N`, the melting point is 78 to 80 °C.
Molecule `COc1ccc(-c2nc(C(C)=O)cn2-c2ccc(OC)cc2)cc1` registered a melting point of 116 to 117 °C.
`Cc1cn(-c2cc3nc(NN)c(=O)n(OCc4ccccc4)c3cc2C(F)(F)F)c(-c2ccccc2)n1` had a melting point of 127 to 130 °C.
In the case of `COc1ccc(N2CCN(c3ccc(OC)nc3-c3ccc(OC)cc3CO)CC2)cc1`, the melting point was in the range of 163 to 165 °C.
The value for `COCCOC1CC(c2ccccc2)Oc2c1ccc1c2nc(C)n1C` (centres undefined) was 148 to 149 °C.
The molecule `COC(=O)c1nc(Br)nc(Br)c1Cl` registered a melting point of 92 to 93 °C.
In the case of `CN1CCN(c2nc(Nc3cccc(NS(C)(=O)=O)c3)nc3[nH]cnc23)CC1` it was 148 to 151 °C.
In turn, `O=C1OCCC12Oc1ccc([N+](=O)[O-])cc1C2=O` (centres undefined) displayed a melting point of 199 to 200 °C.
`CC(c1ccc(C#N)nc1)C(O)(Cn1cncn1)c1ccc(F)cc1F` (centres undefined) had a melting point of 136 to 141 °C.
On to `COc1cnn(-c2cccc(CBr)c2)c(=O)c1OC`, for which the melting point lay within 67 to 69 °C.
The value for `CC(C)(C#N)c1cc(Cn2cncn2)cc(C(N)=O)c1` was 144 to 145 °C.
Turning to `C=C(Cn1cncn1)Cn1cncn1`, the melting point was found to be 52 °C.
Take `COC(=O)c1ccc2c(c1)c(Cc1ccc(C(=O)O)cc1OC)cn2C`: the melting point is 228 to 230 °C.
Molecule `COc1ccc2c(c1)C1Cc3ccccc3C1N2C` (centres undefined) registered a melting point of 72 °C.
`CN1CCC(=C2c3cc(Br)ccc3C=Cn3cccc32)CC1`: the melting point was in the range of 138 to 142 °C.
In the case of `C[C@H]1N(C(=O)c2ccc(C(F)(F)F)cc2)CC(F)O[C@@]1(Cn1cncn1)c1ccc(Cl)cc1Cl` (relative stereo) it was 151 to 156 °C; in that of `NS(=O)(=O)c1ccc(N2C(=O)CN(c3ccccc3)C2=O)cc1`, 291 to 296 °C.
In the case of `CN(C)c1c(C(=O)c2ccccc2)[nH]c2cc(Cl)ccc12` it was 178 to 180 °C; in that of `Cn1ccn(-c2ccc(N3CCN(c4ccc(O)cc4)CC3)cc2)c1=O`, 283 °C.
The value for `CCOC(=O)Cc1ccc(NC(=O)C(CO)NS(=O)(=O)c2ccc(F)cc2)cc1` (racemic) was 148 to 150 °C; that for `O=c1ccc(-c2cccc(Br)c2)nn1CN1CCOCC1` was 110 to 111 °C.
Take `CC(C)(C)c1ccc2c(c1)C(=O)CCC2`: the melting point fell in the range of 101 to 102 °C.
Molecule `CCOc1cc2cc(COC(C)=O)c(COC(C)=O)c(-c3ccnc(-n4ccc5ccccc5c4=O)c3)c2cc1OCC` registered a melting point of 90 to 93 °C.
Turning to `CCOC(=O)CC(C(=O)OCC)N1CCN(CC2CN(c3ccc(C(=N)NC(=O)c4ccccc4)cc3)C(=O)O2)CC1` (centres undefined), the melting point amounted to 136 °C.
Molecule `Cc1cc(CCCCCOc2ccc(-c3cnco3)cc2)on1` displayed a melting point of 91 to 93 °C.
With `CC(C)(Cc1ccc(F)cc1)NC(=O)c1coc(C2C3CCC(O3)C2Cc2ccccc2CCC(=O)O)n1` (centres undefined), the melting point came to 68 °C.
Regarding `CS(=O)(=O)c1ccc(-c2nc(C(F)(F)F)nc(NN)c2-c2ccccc2)cc1`, the melting point is 272 to 275 °C.
Molecule `Cc1ccc(Nc2ccccn2)c(C)c1[N+](=O)[O-]` returned a melting point of 178 to 179 °C.
